Reference: ChEMBL document CHEMBL3734649, “H2O-mediated isatin spiro-epoxide ring opening with NaCN: Synthesis of novel 3-tetrazolylmethyl-3-hydroxy-oxindole hybrids and their anticancer evaluation” (Eur J Med Chem, 2015)
The source made the active and inactive calls. The calls are words filed in the database; no cut-off is given here.

How the values were obtained:
DU-145 [1] = assay: Induction of apoptosis in human DU145 cells assessed as condensed,pyknotic and fragmented nuclei at 1.25 to 5 uM after 48 hrs by DAPI staining based fluorescent microscopic analysis; format: functional, cell-based
DU-145 [2] = assay: Induction of apoptosis in human DU145 cells assessed as reduction in viable cells at 1.25 to 5 uM after 24 hrs by phase contrast microscopic analysis; format: functional, cell-based
[3] = Anticancer activity against human BT549 cells after 48 hrs by MTT assay; format: functional, cell-based; settings: BT-549, 48 h
MDA-MB-231 = assay: Anticancer activity against human MDA-MB-231 cells after 48 hrs by MTT assay; format: functional, cell-based; settings: MDA-MB-231, 48 h
[4] = Anticancer activity against human PC3 cells after 48 hrs by MTT assay; format: functional, cell-based; settings: PC-3, 48 h
[5] = Anticancer activity against human DU145 cells after 48 hrs by MTT assay; format: functional, cell-based; settings: DU-145, 48 h
[6] = Anticancer activity against human PA1 cells after 48 hrs by MTT assay; format: functional, cell-based; settings: PA-1, 48 h
[7] = Cytotoxicity against human RWPE1 cells after 48 hrs by MTT assay; format: cell-based; settings: RWPE-1, 48 h
[8] = Selectivity index, ratio of IC50 for human RWPE1 cells to IC50 for human DU145 cells; format: functional
DU-145 [9] = assay: Anticlonogenic activity against human DU145 cells assessed as inhibition of colony formation of cells incubated for 24 hrs followed by compound washout measured after 14 days by methylene-blue staining-based assay; format: functional, cell-based
DU-145 [10] = assay: Induction of apoptosis in human DU145 cells assessed as apoptotic bodies at 1.25 to 5 uM after 24 hrs by phase contrast microscopic analysis; format: functional, cell-based
DU-145 [11] = assay: Induction of apoptosis in human DU145 cells assessed as […] deformation at 1.25 to 5 uM after 24 hrs by phase contrast microscopic analysis; format: functional, cell-based
DU-145 [12] = assay: Induction of apoptosis in human DU145 cells assessed as cell shrinkage at 1.25 to 5 uM after 24 hrs by phase contrast microscopic analysis; format: functional, cell-based
DU-145 [13] = assay: Induction of apoptosis in human DU145 cells assessed as apoptotic bodies at 1.25 to 5 uM after 48 hrs by acridine orange/ethidium bromide staining based fluorescent microscopic analysis; format: functional, cell-based
DU-145 [14] = assay: Induction of apoptosis in human DU145 cells assessed as membrane blebbing at 1.25 to 5 uM after 48 hrs by acridine orange/ethidium bromide staining based fluorescent microscopic analysis; format: functional, cell-based
DU-145 [15] = assay: Induction of apoptosis in human DU145 cells assessed as cell shrinkage at 1.25 to 5 uM after 48 hrs by acridine orange/ethidium bromide staining based fluorescent microscopic analysis; format: functional
DU-145 [16] = assay: Induction of apoptosis in human DU145 cells assessed as chromatin condensation at 1.25 to 5 uM after 48 hrs by acridine orange/ethidium bromide staining based fluorescent microscopic analysis; format: functional, cell-based
DU-145 [17] = assay: Induction of DNA fragmentation in human DU145 cells assessed as smear formation at 1.25 to 2.5 uM after ethidium bromide staining based agarose gel electrophoresis; format: functional, cell-based
DU-145 [18] = assay: Induction of DNA fragmentation in human DU145 cells assessed as DNA ladder formation at 5 uM after ethidium bromide staining based agarose gel electrophoresis; format: functional, cell-based
[19] = Cell cycle arrest in human DU145 cells assessed as accumulation at G1 phase at 2 uM after 24 hrs by propidium iodide staining based flow cytometric analysis (reference value: 78.18%); format: functional; settings: DU-145
[20] = Cell cycle arrest in human DU145 cells assessed as accumulation at S phase at 2 uM after 24 hrs by propidium iodide staining based flow cytometric analysis (reference value: 3.39%); format: functional; settings: DU-145
[21] = Cell cycle arrest in human DU145 cells assessed as accumulation at G2/M phase at 2 uM after 24 hrs by propidium iodide staining based flow cytometric analysis (reference value: 16.66%); format: functional; settings: DU-145
[22] = Cell cycle arrest in human DU145 cells assessed as accumulation at G1 phase at 4 uM after 24 hrs by propidium iodide staining based flow cytometric analysis (reference value: 78.18%); format: functional; settings: DU-145
[23] = Cell cycle arrest in human DU145 cells assessed as accumulation at S phase at 4 uM after 24 hrs by propidium iodide staining based flow cytometric analysis (reference value: 3.39%); format: functional; settings: DU-145
[24] = Cell cycle arrest in human DU145 cells assessed as accumulation at G2/M phase at 4 uM after 24 hrs by propidium iodide staining based flow cytometric analysis (reference value: 16.66%); format: functional; settings: DU-145
[25] = Cell cycle arrest in human DU145 cells assessed as accumulation at G1 phase at 8 uM after 24 hrs by propidium iodide staining based flow cytometric analysis (reference value: 78.18%); format: functional; settings: DU-145
[26] = Cell cycle arrest in human DU145 cells assessed as accumulation at S phase at 8 uM after 24 hrs by propidium iodide staining based flow cytometric analysis (reference value: 3.39%); format: functional; settings: DU-145
[27] = Cell cycle arrest in human DU145 cells assessed as accumulation at G2/M phase at 8 uM after 24 hrs by propidium iodide staining based flow cytometric analysis (reference value: 16.66%); format: functional; settings: DU-145
DU-145 [28] = assay: Induction of apoptosis in human DU145 cells assessed as dead cells at 1.25 uM after 24 hrs by annexin V-FITC/propidium iodide staining based flow cytometric analysis (reference value: 2.78%); format: functional
DU-145 [29] = assay: Induction of apoptosis in human DU145 cells assessed as late apoptotic cells at 1.25 uM after 24 hrs by annexin V-FITC/propidium iodide staining based flow cytometric analysis (reference value: 4.48%); format: functional
DU-145 [30] = assay: Induction of apoptosis in human DU145 cells assessed as viable cells at 1.25 uM after 24 hrs by annexin V-FITC/propidium iodide staining based flow cytometric analysis (reference value: 89.63%); format: functional; settings: DU-145, 24 h, read-out: Activity
DU-145 [31] = assay: Induction of apoptosis in human DU145 cells assessed as early apoptotic cells at 1.25 uM after 24 hrs by annexin V-FITC/propidium iodide staining based flow cytometric analysis (reference value: 3.11%); format: functional
DU-145 [32] = assay: Induction of apoptosis in human DU145 cells assessed as dead cells at 2.5 uM after 24 hrs by annexin V-FITC/propidium iodide staining based flow cytometric analysis (reference value: 2.78%); format: functional
DU-145 [33] = assay: Induction of apoptosis in human DU145 cells assessed as late apoptotic cells at 2.5 uM after 24 hrs by annexin V-FITC/propidium iodide staining based flow cytometric analysis (reference value: 4.48%); format: functional
DU-145 [34] = assay: Induction of apoptosis in human DU145 cells assessed as viable cells at 2.5 uM after 24 hrs by annexin V-FITC/propidium iodide staining based flow cytometric analysis (reference value: 89.63%); format: functional; settings: DU-145, 24 h, read-out: Activity
DU-145 [35] = assay: Induction of apoptosis in human DU145 cells assessed as early apoptotic cells at 2.5 uM after 24 hrs by annexin V-FITC/propidium iodide staining based flow cytometric analysis (reference value: 3.11%); format: functional
DU-145 [36] = assay: Induction of apoptosis in human DU145 cells assessed as dead cells at 5 uM after 24 hrs by annexin V-FITC/propidium iodide staining based flow cytometric analysis (reference value: 2.78%); format: functional
DU-145 [37] = assay: Induction of apoptosis in human DU145 cells assessed as late apoptotic cells at 5 uM after 24 hrs by annexin V-FITC/propidium iodide staining based flow cytometric analysis (reference value: 4.48%); format: functional
DU-145 [38] = assay: Induction of apoptosis in human DU145 cells assessed as viable cells at 5 uM after 24 hrs by annexin V-FITC/propidium iodide staining based flow cytometric analysis (reference value: 89.63%); format: functional; settings: DU-145, 24 h, read-out: Activity
DU-145 [39] = assay: Induction of apoptosis in human DU145 cells assessed as early apoptotic cells at 5 uM after 24 hrs by annexin V-FITC/propidium iodide staining based flow cytometric analysis (reference value: 3.11%); format: functional
DU-145 [40] = assay: Induction of apoptosis in human DU145 cells assessed as loss of mitochondrial membrane potential at 5 uM after 24 hrs by rhodamine 123 based spectrofluorometric analysis relative to control; format: functional
DU-145 [41] = assay: Induction of apoptosis in human DU145 cells assessed as ROS production after 24 hrs by carboxy-DCFDA based fluorescence microscopic analysis; format: functional, cell-based
DU-145 [42] = assay: Induction of apoptosis in human DU145 cells after 24 hrs by annexin V-FITC/propidium iodide staining based flow cytometric analysis; format: functional, cell-based

Compound: Cc1ccc2c(c1)C(O)(Cc1nnn[nH]1)C(=O)N2Cc1ccccc1 (centres undefined)
- Activity (DU-145 [1]): Active
- Activity (DU-145 [2]): Active
- IC50 [3]: 91.5 µM
- IC50 (MDA-MB-231): > 100 µM
- IC50 [4]: 11.7 µM
- IC50 [5]: 4.26 µM
- IC50 [6]: 33.9 µM
- IC50 [7]: 20.9 µM
- Ratio IC50 [8]: 5
- Activity (DU-145 [9]): Dose-dependent effect
- Activity (DU-145 [10]): Active
- Activity (DU-145 [11]): Active
- Activity (DU-145 [12]): Active
- Activity (DU-145 [13]): Active
- Activity (DU-145 [14]): Active
- Activity (DU-145 [15]): Active
- Activity (DU-145 [16]): Active
- Activity (DU-145 [17]): Active
- Activity (DU-145 [18]): Active
- Activity [19]: 44.8%
- Activity [20]: 12.3%
- Activity [21]: 39.8%
- Activity [22]: 36.3%
- Activity [23]: 6.71%
- Activity [24]: 52.8%
- Activity [25]: 17%
- Activity [26]: 7.34%
- Activity [27]: 72.8%
- Activity (DU-145 [28]): 6.27%
- Activity (DU-145 [29]): 8.51%
- viability at 1.25 µM (DU-145 [30]): 68.6%
- Activity (DU-145 [31]): 16.63%
- Activity (DU-145 [32]): 3.2%
- Activity (DU-145 [33]): 11.6%
- viability at 2.5 µM (DU-145 [34]): 58.1%
- Activity (DU-145 [35]): 27%
- Activity (DU-145 [36]): 1.31%
- Activity (DU-145 [37]): 12.59%
- viability at 5 µM (DU-145 [38]): 41.3%
- Activity (DU-145 [39]): 44.77%
- Activity (DU-145 [40]): 45.4%
- Activity (DU-145 [41]): Dose-dependent effect
- Activity (DU-145 [42]): Dose-dependent effect

Compound: O=C1N(Cc2ccccc2)c2ccc(F)cc2C1(O)Cc1nnn[nH]1 (centres undefined)
- IC50 [3]: 78.7 µM
- IC50 (MDA-MB-231): 27.2 µM
- IC50 [4]: > 100 µM
- IC50 [5]: > 100 µM
- IC50 [6]: > 100 µM

Compound: CCN1C(=O)C(O)(Cc2nnn[nH]2)c2cc(C)ccc21 (centres undefined)
- IC50 [3]: > 100 µM
- IC50 (MDA-MB-231): > 100 µM
- IC50 [4]: > 100 µM
- IC50 [5]: 14.6 µM
- IC50 [6]: > 100 µM
- IC50 [7]: > 100 µM

Compound: O=C1N(Cc2ccccc2)c2ccccc2C1(O)Cc1nnn[nH]1 (centres undefined)
- IC50 [3]: > 100 µM
- IC50 (MDA-MB-231): 74.1 µM
- IC50 [4]: > 100 µM
- IC50 [5]: > 100 µM
- IC50 [6]: > 100 µM

Compound: O=c1[nH]cc(F)c(=O)[nH]1 [FLUOROURACIL]
- IC50 [3]: 19.8 µM
- IC50 (MDA-MB-231): 45.4 µM
- IC50 [4]: 68.3 µM
- IC50 [5]: 39.2 µM
- IC50 [6]: 7.59 µM

Compound: CN1C(=O)C(O)(Cc2nnn[nH]2)c2cc(F)ccc21 (centres undefined)
- IC50 [3]: > 100 µM
- IC50 (MDA-MB-231): > 100 µM
- IC50 [4]: 38.2 µM
- IC50 [5]: > 100 µM
- IC50 [6]: > 100 µM

Compound: CN1C(=O)C(O)(Cc2nnn[nH]2)c2cc(Cl)ccc21 (centres undefined)
- IC50 [3]: > 100 µM
- IC50 (MDA-MB-231): > 100 µM
- IC50 [4]: > 100 µM
- IC50 [5]: 76 µM
- IC50 [6]: > 100 µM

Compound: Cc1ccc2c(c1)C(O)(Cc1nnn[nH]1)C(=O)N2C (centres undefined)
- IC50 [3]: > 100 µM
- IC50 (MDA-MB-231): > 100 µM
- IC50 [4]: > 100 µM
- IC50 [5]: > 100 µM
- IC50 [6]: > 100 µM

Compound: CN1C(=O)C(O)(Cc2nnn[nH]2)c2cc(Br)ccc21 (centres undefined)
- IC50 [3]: > 100 µM
- IC50 (MDA-MB-231): 67.3 µM
- IC50 [4]: > 100 µM
- IC50 [5]: > 100 µM
- IC50 [6]: > 100 µM

Compound: CCN1C(=O)C(O)(Cc2nnn[nH]2)c2ccccc21 (centres undefined)
- IC50 [3]: > 100 µM
- IC50 (MDA-MB-231): > 100 µM
- IC50 [4]: > 100 µM
- IC50 [5]: > 100 µM
- IC50 [6]: > 100 µM
